This is an account of results in a melting point compilation (Tetko et al.; mined from patent text by program, amines drawn as free bases though some values may be those of a salt).

The structures appear in SMILES notation.

The term melting point denotes the temperature of the solid-liquid transition. `CN(C)C(=O)COc1ccc2c(-c3ccccc3F)noc2c1Cl` returned a melting point of 116 °C.

`O=c1[nH]c(CCN2CCCC(O)C2)cc2ccccc12` (centres undefined) yielded a melting point of 192 to 193 °C.

As for `CCCCOC(=O)c1ccc(C(=O)NNC(=O)c2ccc(C(=O)OCCCC)cc2)cc1`, the melting point lay in the range of 166 to 168 °C.

With `O=c1[nH]c2cc(Cl)cc(Cl)c2c(=O)n1Cc1cccc([N+](=O)[O-])c1`, the melting point is 314 to 317 °C.

With `O=C(CCCCCCCCC(=O)OCCO)OCCO`, the melting point is 47 °C.

As for `CCCCOC(=O)Nc1nc2ccccc2c2c1nc(CC)n2CCCCNS(C)(=O)=O`, the melting point was 164 to 166 °C.

For `CCc1n[nH]c2c1nc(-c1cccnc1)c1ccccc12`, the melting point lay within 219 to 220 °C.

Turning to `C=CCc1ccc(OCCC(C)C)c2c(=O)cc(-c3nnnn3Cc3ccccc3)oc12`, the melting point fell in the range of 92.5 to 94 °C.

The compound `Nc1c(C(F)(F)F)cc(Cl)c2[nH]c(=O)c(=O)[nH]c12` returned a melting point above 360 °C.

Compound `CC(O)(CCCl)c1ccc(-c2ccc(F)cc2)cc1` (centres undefined) had a melting point of 78 to 79 °C.

Take `COc1ccc(C(=O)n2c3c(c4ccccc42)CC(C(=O)O)CC3)cc1` (centres undefined): the melting point was 195 °C.

On to `CCCCCCCCCCCCCCCCCCOc1ccc(C=Cc2ccc(S(=O)(=O)CCCO)cc2)cc1`, for which the melting point was found to be 137 °C.

As to `COc1cc2oc(=O)c(CCN3CCN(c4ccccc4)CC3)c(C)c2c(OC)c1OC`, the melting point fell in the range of 136 to 137 °C.

Compound `O=c1oc2cc(O)c(O)cc2c(O)c1-c1coc2c1c(=O)oc1cc(O)c(O)cc12` yielded a melting point above 300 °C.

With `CN(C)C=C(C=O)c1ccc(C(F)(F)F)cc1`, the melting point was 97 °C.

`Cc1nc(C(F)(F)F)ccc1C(=O)C1=C(O)C2CCC(C2)C1=O` (centres undefined) gave a melting point of 75 to 77 °C.

`COC(=O)C(c1ccc(N)cc1)C1CC1` (centres undefined) displayed a melting point of 68 to 69 °C.

In turn, `Cc1ccc2c(c1)N=C(N1CCN(C)CC1)c1cccc3ccn-2c13` returned a melting point of 202 to 204 °C.

Regarding `CC(=O)NCCNc1nc(Nc2ccc(Cl)cc2)ncc1[N+](=O)[O-]`, the melting point lay in the range of 224 to 226 °C.

In turn, `Cc1c(Cl)nnc(Cl)c1C` had a melting point of 80 to 82 °C.

On to `CCOc1ccc(S(=O)(=O)Cl)cc1OC`, for which the melting point lay within 72 to 73 °C.

The compound `O=C(O)c1sccc1C(F)F` returned a melting point of 119 to 120 °C.

For the compound `CCCCCCCCCCCCSC1C=NNC1=O` (centres undefined), the melting point lay within 88.5 to 90 °C.

`CC1(C)OC(=S)Nc2ccc(-c3cc(F)cc(C(F)(F)F)c3)cc21` had a melting point of 204 to 206 °C.

Take `COCOC(c1cc(CBr)ccc1I)(C(F)(F)F)C(F)(F)F`: the melting point was 93 °C.

The compound `N#Cc1ccc(CCCCC2CC(c3cccnc3)=CC(=O)O2)cc1` (centres undefined) returned a melting point of 110 to 112 °C.

Compound `CSc1sc(C(=O)N2CCN(C)CC2)c2c1C(=O)CC(C)(C)C2` returned a melting point of 123 to 125 °C.

`CCC12CCC3=C(CC(C)c4cc(OC)ccc43)C1CCC21OCCO1` (centres undefined): the melting point was 122 to 124 °C.

Compound `COCC(=O)c1c(Cl)ccc(F)c1Cl` registered a melting point of 36.7 to 39.4 °C.

Consider `CCc1cc(O)n2ncnc2n1`, for which the melting point came to 212 °C.

For the compound `CCC1Cc2cc(OCC(=O)O)c(Cl)c(Cl)c2C1O` (centres undefined), the melting point lay in the range of 121 to 122 °C.

Compound `CCCCCCCCCCCCP(=O)(O)CCCNC(=O)OCc1ccccc1` registered a melting point of 115 to 116 °C.

With `CC(C)=C1NC(=O)c2ccccc2S1`, the melting point lay within 187 to 188 °C.

In turn, `CCOC(=O)C(=O)Nc1cc(C)c(C)cc1C(N)=O` displayed a melting point of 190 to 193 °C.

Turning to `O=C1c2ccccc2C(=O)N1c1ccccc1CSc1nccn1Cc1ccccn1`, the melting point was in the range of 80 to 83 °C.

Regarding `O=C1CC(C(F)(F)F)CC(=O)N1c1ccc(Br)cc1`, the melting point was 163 to 164 °C.

As to `COC(=O)c1sc2nc(-c3ccccc3)cnc2c1N`, the melting point lay within 197 to 198 °C.

Take `O=C(O)c1cc(OCCCOc2ccccc2-c2ccccc2)cc(OCCCOc2ccccc2-c2ccccc2)c1`: the melting point was 110 to 113 °C.

In the case of `N#Cc1cccc(-c2nc(C(N)=O)c3[nH]c(=O)n(-c4ccccc4)c3n2)c1`, the melting point fell in the range of 328 to 330 °C.

The compound `OC(Cn1cncn1)(Cn1cnc(C=Cc2ccc(OC(F)(F)F)cc2)n1)c1ccc(F)cc1F` (centres undefined) had a melting point of 149 to 151 °C.

On to `COc1ccc(C=C2C(=O)c3cc(O)ccc3OC2c2ccc(OC)cc2)cc1` (centres undefined), for which the melting point was 199 to 201 °C.

`CCCCCCc1c(F)cc(C2C=CC(CCCCC)=CC2)cc1F` (centres undefined) yielded a melting point of 35 °C.

As for `CC(C)(C)C(O)C(=CC1CCCCC1)n1cncn1` (centres undefined), the melting point lay in the range of 145 to 148 °C.

As for `Cc1cc2c(cc1C#N)C(c1ccccn1)=CC(C)(C)CO2`, the melting point was 171 °C.

The compound `COc1cc2nc(NC3CC3)nc(-c3cccc([N+](=O)[O-])c3)c2cc1OC` showed a melting point of 140 to 142 °C.

With `COc1ccc(-n2cc(/C=C(\C#N)C(=O)NS(=O)(=O)c3ccccc3)c(-c3ccc(Cl)c(F)c3)n2)cc1Cl`, the melting point was 263 to 264 °C.

The compound `NC1=NS(=O)N=C1NCCCN(Cc1ccccn1)c1ccccn1` (centres undefined) yielded a melting point of 192 to 193 °C.

As for `O=C(CCCCC1(c2ccccc2)CC(O)=C(SCCc2ccccc2)C(=O)O1)NCc1ccccc1` (centres undefined), the melting point was in the range of 47 to 49 °C.

The compound `O=C1C2=C(SCCN2)C2CSCCN12` (centres undefined) gave a melting point of 142 °C.

On to `COC(=O)c1ccc(Nc2ccc(C#N)cc2N)cc1`, for which the melting point was 164 to 165 °C.

For `O=C(CCc1ccc(OCc2ccccc2)cc1)C(F)(F)F`, the melting point was 71 to 72 °C.

The compound `CN1OCC(=O)N(c2ccc(Oc3ccccc3)cc2)C1=S` came in with a melting point of 159 to 160 °C.

The compound `COc1cccc2c1nc(C(F)F)n2-c1nc(N2CCOCC2)c2ncn(-c3cncnc3)c2n1` had a melting point of 248 to 251 °C.

Consider `CC(C)(C)OC(=O)N1[C@@H](Cc2ccc(O[Si](C)(C)C(C)(C)C)c(C(C)(C)C)c2)C(=O)O[C@H](c2ccccc2)[C@@H]1c1ccccc1`, for which the melting point lay in the range of 75 to 83 °C.

`COP(=O)(OC)c1cc(O)c2c(=O)cc(-c3ccccc3)oc2c1` came in with a melting point of 219 °C.

As for `O=C(N[C@H](Cc1ccc(C(F)(F)F)cc1)[C@@H](O)c1cccc2ccccc12)C1CCCCC1` (racemic), the melting point lay within 156 to 157 °C.

The compound `Cc1ncn(C(=O)Nc2cc(Cl)cc(Cl)c2)c1Cl` yielded a melting point of 137 to 139 °C.

`CN1CCC(C2(O)c3ccccc3Oc3ccc(F)cc32)CC1` (centres undefined) showed a melting point of 193 to 200 °C.

As to `N#Cc1c(F)nc2ccc([N+](=O)[O-])cc2c1F`, the melting point was in the range of 128 to 129 °C.

Consider `Cc1cc(Cl)ccc1Cn1nc(C=O)c2ccccc21`, for which the melting point fell in the range of 107 to 109 °C.

Compound `CCCCCOCCOc1ccc(-c2ccc3c(c2)C=C(C(=O)Nc2ccc(CN(C)C4CCOCC4)cc2)CCS3(=O)=O)cc1` had a melting point of 188 to 189 °C.

In turn, `CC(=O)C1CCC2C3CC(C)C4CC(O)CCC4(C)C3C(O)CC12C` (centres undefined) gave a melting point of 211 to 213 °C.

The compound `Cc1c(Nc2c(C#N)cncc2-c2cc3cc(C=O)ccc3o2)ccc2[nH]ccc12` had a melting point of 235 to 237 °C.

In turn, `CC(=O)Oc1ccccc1C(=O)N1CC(O)C[C@H]1C(=O)O` (some centres undefined) displayed a melting point of 175 °C.

Turning to `CCOC(=O)c1cn(Cc2ccccc2)nc1OCc1ccc(OCc2nc(-c3ccco3)oc2C)nc1`, the melting point fell in the range of 140 to 141 °C.

Compound `Cc1ccc2c(N)c(Cl)ccc2n1` displayed a melting point of 196 to 197 °C.

On to `CCN(C)c1cc(C)nc(Oc2c(C)cc(C)cc2C)c1C`, for which the melting point lay within 173 to 174 °C.

As for `O=C(O)COc1ccc(SCc2cc(-c3ccc(Cl)cc3)on2)c2c1CCCO2`, the melting point lay in the range of 131 to 133 °C.

Turning to `CC(C)(C)OC(=O)N1CC[C@H](O)[C@H](F)C1` (relative stereo), the melting point is 48 °C.

Take `COc1cc(C2CCN(CCO)CC2)ccc1Nc1ncc2ccc(-c3cccc(S(=O)(=O)NC(C)(C)C)c3)n2n1`: the melting point is 220 to 224 °C.

On to `Cn1nnnc1CC(=O)c1ccc(C(F)(F)F)cc1N`, for which the melting point fell in the range of 200 to 201 °C.

In turn, `COc1nc(-c2ccccc2)c(-c2ccc(=O)n(C(C)C)n2)nc1C#N` yielded a melting point of 170 to 172 °C.

Regarding `CC(C)(C)c1cc(N2CCN(C(=O)c3ccc([N+](=O)[O-])cc3)C2=O)cc(C(C)(C)C)c1O`, the melting point is above 260 °C.

Turning to `COc1cc(COc2cc(/C=C/c3cscn3)n(-c3ccccc3)n2)ccc1OCc1nc(-c2ccco2)oc1C`, the melting point lay in the range of 154 to 155 °C.

Take `Cc1c(-c2ccccc2)oc2c(C(=O)O)cccc12`: the melting point fell in the range of 220 to 222 °C.

`Cn1c(CCl)cnc1[N+](=O)[O-]`: the melting point lay within 100 to 101 °C.

With `Cc1cc(F)ccc1C(=O)c1ccc(F)cc1C`, the melting point is 50 to 52 °C.

In turn, `COc1ccc(-c2c(C#N)ccnc2SC)cc1` showed a melting point of 80 to 81 °C.

For `CCc1oc2ccccc2c1C(=O)c1cc(C(C)C)c(OS(=O)(=O)c2ccc(C(=O)O)c(O)c2)c(C(C)C)c1`, the melting point fell in the range of 200 to 201 °C.

With `COc1cc2c(cc1OC)C(Cc1ccc([N+](=O)[O-])cc1)NCC2` (centres undefined), the melting point is 134 to 136 °C.

The compound `COC(=O)c1cc(-c2nc(COc3ccc(COc4nn(-c5ccccc5)cc4C=O)cc3OC)c(C)o2)ccc1OC` had a melting point of 165 to 166 °C.

`O=C1CC(c2ccccc2OCc2ccccc2)=Nc2ccc(N3CCOCC3)cc21` gave a melting point of 281 to 283 °C.

Compound `COc1ccc(Cn2nnc(-c3ccc(C(F)(F)F)cc3F)c2N)cc1` gave a melting point of 153 to 154 °C.

Regarding `CCc1nsc(C(=O)O)c1C(=O)OC`, the melting point fell in the range of 43 to 45 °C.

`Nc1nc(N)c2c(ccc3c2ccn3Cc2ccc(OC(F)(F)F)cc2)n1` came in with a melting point of 205 to 208 °C.

The compound `CCCc1c(OCCCCCOc2cccc3cc(C(=O)O)oc23)ccc2c1OCCC2=O` showed a melting point of 79.5 to 81 °C.

The compound `COC(=O)c1c(N)ncn1-c1c(C)cccc1C` showed a melting point of 154 to 156 °C.

In turn, `O=C(CCc1cccc2c1NC(=O)CO2)CCc1cccc2c1NC(=O)CO2` displayed a melting point of 183 to 185 °C.

`C=CCN1CCN(CCC(=O)N2c3ccccc3C(=O)Nc3cccnc32)CC1` came in with a melting point of 205 to 207 °C.
